Assay results: patent US6121323A, “Bishydroxyureas” (3M Innovative Properties Company, priority 1997, dated 2000)

Key:
[1] = test system: Leukotriene B4 production in whole human blood; assay: In vitro human whole blood Leukotriene B4 inhibition; format: cell-based; settings: A23187 stimulated, read-out: IC50 (concentration producing 50% inhibition of LTB4 production)
Method: IN VITRO HUMAN WHOLE BLOOD LEUKOTRIENE B4 INHIBITION
The test method described below measures the ability of compounds to inhibit the production of Leukotriene B4 in whole human blood.
Whole human blood is collected by venipuncture into a 60 cc syringe containing 100 units of heparin.
compounds are disolved in dimethyl sulfoxide. Compounds are tested at concentrations of 100, 33, 11, 3.7, 1.2 and 0.41 μM. Each concentration is tested in duplicate.
Aliquots (1 μL) of compound solution are added to 1 mL polyethylene tubes followed by the addition of 500 μL portion of heparinized blood. The tubes are mixed thoroughly then allowed to preincubate at ambient temperature for 15 minutes. A 25 μL portion of 1 mM Calcium Ionophore A23187 in dimethyl sulfoxide/Tris buffer is added to the tubes. The tubes are mixed thoroughly then incubated at 37° C. for 30 minutes.
The tubes are centrifuged at 2000 rpm for 10 minutes. 100 μL portions of plasma are transferred to 1 mL polyethylene tubes containing 400 μL portions of methanol. The tubes are vortexed then frozen at -20° C. overnight.
The tubes are centrifuged for 10 minutes then 100 μL portions of methanol supernatant are transferred to a 96 well microtiter plate. 10 μL portions are transferred from this plate to a 96 well assay plate. Methanol dilutions of LTB4 standard curve are added to the assay plate. 10 μL portions of blank methanol/plasma supernatant are added to each standard curve well. The assay plate is vacuum dried at ambient temperature. The radioimmunoassay buffer is added, the plate is bath-sonicated for 5 minutes then assayed according to the manufacturer's instructions (Advanced Magnetics; Cambridge, Mass.). Inhibition of LTB4 production is calculated as the ratio of the amount of LTB4 formed in the presence (LTB4 +cpd) and absence (LTB4 no cpd) of compound according the equation below. [formula] IC50 values (concentration of compound producing a 50% inhibition of LTB4 production) are calculated by linear regression analysis of percentage inhibition versus log compound concentration plots.

5-lipoxygenase = molecular target: T1, 5-lipoxygenase (Homo sapiens, UniProt P09917); assay: 5-Lipoxygenase inhibition in human leukocytes (LTC4 by radioimmunoassay); format: cell-based; settings: A23187 stimulated, LTC4 readout, read-out: IC50 (concentration producing 50% leukotriene biosynthesis inhibition)
T1 construct: endogenous in cells; host or cells: leukocytes from whole human blood (EDTA, dextran sedimentation, hypotonic lysis)
T1 sequence (P09917 1-674): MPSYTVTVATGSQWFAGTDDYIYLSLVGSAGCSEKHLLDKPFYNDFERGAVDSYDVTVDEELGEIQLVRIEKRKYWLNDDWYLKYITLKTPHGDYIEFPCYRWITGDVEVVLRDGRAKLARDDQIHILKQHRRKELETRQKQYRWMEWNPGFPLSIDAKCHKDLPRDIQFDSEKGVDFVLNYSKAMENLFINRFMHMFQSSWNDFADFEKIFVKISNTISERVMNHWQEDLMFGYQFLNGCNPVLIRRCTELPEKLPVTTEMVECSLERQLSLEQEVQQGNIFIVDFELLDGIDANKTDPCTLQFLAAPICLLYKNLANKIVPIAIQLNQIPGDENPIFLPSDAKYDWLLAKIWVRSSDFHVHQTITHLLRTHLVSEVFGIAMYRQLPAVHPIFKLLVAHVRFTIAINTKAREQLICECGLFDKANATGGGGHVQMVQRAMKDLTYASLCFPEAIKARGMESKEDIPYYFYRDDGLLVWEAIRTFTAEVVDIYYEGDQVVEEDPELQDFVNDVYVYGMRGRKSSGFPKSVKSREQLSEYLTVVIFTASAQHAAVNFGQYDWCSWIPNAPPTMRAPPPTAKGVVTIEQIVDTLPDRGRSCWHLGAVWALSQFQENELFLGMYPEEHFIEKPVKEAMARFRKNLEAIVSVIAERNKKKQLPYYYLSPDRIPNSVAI
Method: 5-LIPOXYGENASE INHIBITION IN HUMAN LEUKOCYTES
The test method described below measures the ability of compounds of the invention to inhibit 5-lipoxygenase activity in human leukocytes.
Whole human blood is collected by venipuncture into EDTA (1.4 mL of 0.25M per 60 mL of whole blood). The red blood cells are sedimented with a 6% dextran/0.9% sodium chloride solution at a ratio of 25 mL whole blood to 15 mL dextran solution. The blood/dextran combination is mixed by inversion and the red blood cells are allowed to settle out for 45 minutes at ambient temperature. The plasma/dextran supernatant is removed then centrifuged at ambient temperature at 3000 rpm for 10 minutes. The plasma/dextran supernatant is removed and the cells are resuspended in 10 mL of the plasma/dextran solution. The cell suspension is combined with 20 mL of water, mixed for 1.5 minutes then immediately combined with 10 mL of 3.6% sodium chloride, mixed and centrifuged at ambient temperature at 3000 rpm for 10 minutes. The pellet is washed with 40 mL of Tris buffer (5.55 mM dextrose, 15.36 mM Tris base, 136.9 mM sodium chloride with pH 7.3-7.4) then centrifuged at 3000 rpm for 10 minutes. The pellet is then resuspended into Tris buffer containing 1 mM calcium chloride to provide approximately 1.0×10^7 cells/mL.
Compounds are dissolved in dimethyl sulfoxide. Compounds are tested at concentrations of 100, 33, 11, 3.7, 1.2 and 0.41 μM. Each concentration is tested in duplicate.
A 15 μL portion of Tris buffer containing 1 mM calcium chloride is added to each well of a 96 well microtiter plate. A 1 μL portion of drug solution or vehicle (dimethyl sulfoxide) is added to each well followed by the addition of a 75 μL portion of the cell suspension. The plates are gently mixed then allowed to stand at ambient temperature for 10 minutes. A 10 μL portion of 30 μM A23187 Calcium Ionophore (prepared by dissolving the ionophore in DMSO and then diluting 1:80 into the Tris buffer) is added to each well except the wells that contain the blanks. The blank wells measure the level of LTC4 production in the absence of A23187. The plates are gently mixed then incubated at 37° C. for 10 minutes.
Following incubation the plates are centrifuged at 2000 rpm for 1.5 minutes and the supernatant is removed as quickly as possible to stop the reaction. The supernatants are frozen at -20° C. until they are assayed.
The supernatants are assayed for the presence of Leukotriene C4 by radioimmunoassay which is performed according to the manufacturer's instructions (Advanced Magnetics; Cambridge, Mass.). Inhibition of leukotriene biosynthesis is calculated as the ratio of the amount of LTC4 formed in the presence (LTC4 +cpd) and absence (LTC4 no cpd) of compound according to the following equation. [formula] IC50 values (concentrations of compound producing 50% leukotriene biosynthesis inhibition) are calculated by linear regression analysis of percentage inhibition versus log compound concentration plots.

Row | IC50 [1] [nM] | IC50 (5-lipoxygenase) [nM] | SMILES
1 | 8200 | 4220 | CCc1cc(Cc2cc(CC)c(NC(=O)N(C)O)c(CC)c2)cc(CC)c1NC(=O)N(C)O [Example 4, 4,4'-Methylenebis(1-hydroxy-1-methyl-3-(2,6-diethylphenyl)urea)]
2 | 700 | 24 | CN(O)C(=O)Nc1ccc(C(c2ccc(NC(=O)N(C)O)cc2)(C(F)(F)F)C(F)(F)F)cc1 [Example 5, 4,4'-(2,2-Hexafluoropropane)bis(1-hydroxy-1-methyl-3-phenylurea)]
3 | 500 | 216 | CN(O)C(=O)Nc1ccc(Oc2ccc(NC(=O)N(C)O)cc2)cc1 [Example 6, 4,4'-Oxybis(1-hydroxy-1-methyl-3-phenylurea)]
4 | 2000 | 100 | O=C(NCCCCCCNC(=O)N(O)Cc1ccccc1)N(O)Cc1ccccc1 [Example 10, 1,1'-Hexamethylenebis(3-hydroxy-3-benzylurea)]
5 | 550 | 5900 | CN(O)C(=O)Nc1cccc(NC(=O)N(C)O)c1 [Example 7, 1,1'-(m-Phenylene)bis(3-hydroxy-3-methylurea)]
6 | 350 | 100 | COc1cc(-c2ccc(NC(=O)N(C)O)c(OC)c2)ccc1NC(=O)N(C)O [Example 11]
7 | 17200 | > 10000 | CN(O)C(=O)N[C@H]1CC[C@H](NC(=O)N(C)O)CC1 [Example 9, trans-1,4-Cyclohexanebis(3-hydroxy-3-methylurea)]
8 | 700 | 5600 | CN(O)C(=O)Nc1cccc2c(NC(=O)N(C)O)cccc12 [Example 8, 1,1'-(1,5-Naphthalene)bis(3-hydroxy-3-methylurea)]
